Test results: publication PMC8037182, “Solvothermal Synthesis of Multiple Dihydropyrimidinones at a Time as Inhibitors of Eg5” (Molecules, 2021)

Assays:
T24 cell line = test: Cytotoxicity MTS assay, T24 cell line; format: cell-based; conditions: for OD490 Mean / OD490 Well 1 / OD490 Well 2 / OD490 Well 3: T24 cell line;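 as to OD490 Mean: blank control wells received 0.025% DMSO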;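 as to OD490 Well 1: blank control wells received 0.025% DMSO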;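 as to OD490 Well 2: blank control wells received 0.025% DMSO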;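 as to OD490 Well 3: blank control wells received 0.025% DMSO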
Outline: (§1)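 Cells were seeded at 1000 per well, allowed 24 h, then exposed to compounds at final concentrations of 0.5 to 100 µM for 24 h, with 0.025% DMSO as blank. MTS reagent was added for 2 h at 37 °C and absorbance read at 490 nm. IC50 came from non-linear regression of viability against concentration.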

Caco-2 cell line = test: Cytotoxicity MTS assay, Caco-2 cell line; format: cell-based; conditions: for OD490 Mean / OD490 Well 1 / OD490 Well 2 / OD490 Well 3: Caco-2 cell line
Outline: as §1

## CCOc1ccccc1C1NC(=S)NC(C)=C1C(=O)Nc1ccc(Cl)cc1 (stereo not drawn) [C9]
other
  melting point: 253 to 257 °C
T24 cell line; Homo sapiens, T-24, MTS assay, 24 h exposure
  IC50: 103 µM
T24 cell line; 0.5μM, first assay
  OD490 Mean: 1.7287
  OD490 Well 1: 1.7105
  OD490 Well 2: 1.7618
  OD490 Well 3: 1.7137
T24 cell line; 0.5μM, second assay
  OD490 Mean: 1.6993
  OD490 Well 1: 1.7012
  OD490 Well 2: 1.6854
  OD490 Well 3: 1.7112
T24 cell line; 0.5μM, third assay
  OD490 Mean: 1.6796
  OD490 Well 1: 1.7151
  OD490 Well 2: 1.6985
  OD490 Well 3: 1.6252
T24 cell line; 1μM, first assay
  OD490 Mean: 1.7475
  OD490 Well 1: 1.7891
  OD490 Well 2: 1.7321
  OD490 Well 3: 1.7213
T24 cell line; 1μM, second assay
  OD490 Mean: 1.6914
  OD490 Well 1: 1.6854
  OD490 Well 2: 1.6687
  OD490 Well 3: 1.7201
T24 cell line; 1μM, third assay
  OD490 Mean: 1.6844
  OD490 Well 1: 1.6654
  OD490 Well 2: 1.6854
  OD490 Well 3: 1.7023
T24 cell line; 10μM, first assay
  OD490 Mean: 1.7610
  OD490 Well 1: 1.7529
  OD490 Well 2: 1.7204
  OD490 Well 3: 1.8096
T24 cell line; 10μM, second assay
  OD490 Mean: 1.6914
  OD490 Well 1: 1.6952
  OD490 Well 2: 1.7032
  OD490 Well 3: 1.6758
T24 cell line; 10μM, third assay
  OD490 Mean: 1.6899
  OD490 Well 1: 1.6523
  OD490 Well 2: 1.6854
  OD490 Well 3: 1.7320
T24 cell line; 25μM, first assay
  OD490 Mean: 1.6722
  OD490 Well 1: 1.6737
  OD490 Well 2: 1.6555
  OD490 Well 3: 1.6875
T24 cell line; 25μM, second assay
  OD490 Mean: 1.5562
  OD490 Well 1: 1.5784
  OD490 Well 2: 1.5687
  OD490 Well 3: 1.5214
T24 cell line; 25μM, third assay
  OD490 Mean: 1.5261
  OD490 Well 1: 1.5255
  OD490 Well 2: 1.4895
  OD490 Well 3: 1.5632
T24 cell line; 50μM, first assay
  OD490 Mean: 1.4241
  OD490 Well 1: 1.3950
  OD490 Well 2: 1.4682
  OD490 Well 3: 1.4091
T24 cell line; 50μM, second assay
  OD490 Mean: 1.2984
  OD490 Well 1: 1.3242
  OD490 Well 2: 1.3021
  OD490 Well 3: 1.2688
T24 cell line; 50μM, third assay
  OD490 Mean: 1.2717
  OD490 Well 1: 1.2854
  OD490 Well 2: 1.2312
  OD490 Well 3: 1.2985
T24 cell line; 100μM, first assay
  OD490 Mean: 1.1300
  OD490 Well 1: 1.1347
  OD490 Well 2: 1.0869
  OD490 Well 3: 1.1684
T24 cell line; 100μM, second assay
  OD490 Mean: 1.0488
  OD490 Well 1: 1.1133
  OD490 Well 2: 1.0101
  OD490 Well 3: 1.0230
T24 cell line; 100μM, third assay
  OD490 Mean: 1.0526
  OD490 Well 1: 1.0120
  OD490 Well 2: 1.1123
  OD490 Well 3: 1.0334
Caco-2 cell line; 0.5μM, first assay
  OD490 Mean: 0.6579
  OD490 Well 1: 0.6600
  OD490 Well 2: 0.6452
  OD490 Well 3: 0.6685
Caco-2 cell line; 0.5μM, second assay
  OD490 Mean: 0.6430
  OD490 Well 1: 0.6499
  OD490 Well 2: 0.6217
  OD490 Well 3: 0.6574
Caco-2 cell line; 0.5μM, third assay
  OD490 Mean: 0.6809
  OD490 Well 1: 0.6676
  OD490 Well 2: 0.6999
  OD490 Well 3: 0.6752
Caco-2 cell line; 1μM, first assay
  OD490 Mean: 0.6557
  OD490 Well 1: 0.6594
  OD490 Well 2: 0.6683
  OD490 Well 3: 0.6393
Caco-2 cell line; 1μM, second assay
  OD490 Mean: 0.6328
  OD490 Well 1: 0.6398
  OD490 Well 2: 0.6387
  OD490 Well 3: 0.6200
Caco-2 cell line; 1μM, third assay
  OD490 Mean: 0.6578
  OD490 Well 1: 0.6898
  OD490 Well 2: 0.6914
  OD490 Well 3: 0.5921
Caco-2 cell line; 10μM, first assay
  OD490 Mean: 0.6390
  OD490 Well 1: 0.5664
  OD490 Well 2: 0.6539
  OD490 Well 3: 0.6968
Caco-2 cell line; 10μM, second assay
  OD490 Mean: 0.5939
  OD490 Well 1: 0.5553
  OD490 Well 2: 0.5431
  OD490 Well 3: 0.6832
Caco-2 cell line; 10μM, third assay
  OD490 Mean: 0.6521
  OD490 Well 1: 0.6349
  OD490 Well 2: 0.6214
  OD490 Well 3: 0.7001
Caco-2 cell line; 25μM, first assay
  OD490 Mean: 0.5635
  OD490 Well 1: 0.5780
  OD490 Well 2: 0.5488
  OD490 Well 3: 0.5637
Caco-2 cell line; 25μM, second assay
  OD490 Mean: 0.5347
  OD490 Well 1: 0.5232
  OD490 Well 2: 0.5214
  OD490 Well 3: 0.5594
Caco-2 cell line; 25μM, third assay
  OD490 Mean: 0.6041
  OD490 Well 1: 0.6789
  OD490 Well 2: 0.5214
  OD490 Well 3: 0.6121
Caco-2 cell line; 50μM, first assay
  OD490 Mean: 0.4407
  OD490 Well 1: 0.4378
  OD490 Well 2: 0.4511
  OD490 Well 3: 0.4331
Caco-2 cell line; 50μM, second assay
  OD490 Mean: 0.4117
  OD490 Well 1: 0.3953
  OD490 Well 2: 0.4678
  OD490 Well 3: 0.3721
Caco-2 cell line; 50μM, third assay
  OD490 Mean: 0.4510
  OD490 Well 1: 0.4963
  OD490 Well 2: 0.3954
  OD490 Well 3: 0.4613
Caco-2 cell line; 100μM, first assay
  OD490 Mean: 0.3208
  OD490 Well 1: 0.2950
  OD490 Well 2: 0.3313
  OD490 Well 3: 0.3360
Caco-2 cell line; 100μM, second assay
  OD490 Mean: 0.2995
  OD490 Well 1: 0.2898
  OD490 Well 2: 0.3121
  OD490 Well 3: 0.2965
Caco-2 cell line; 100μM, third assay
  OD490 Mean: 0.3309
  OD490 Well 1: 0.3633
  OD490 Well 2: 0.2374
  OD490 Well 3: 0.3921
Caco-2 cell line; Homo sapiens, Caco-2, MTS assay, 24 h exposure
  IC50: 65.8 µM
